Patent US11542273B2, “Amide compound having bet proteolysis-inducing action and medicinal application thereof” (MITSUBISHI TANABE PHARMA CORPORATION, priority 2018, dated 2023)

Assays:
[1] = test system: human prostate cancer LNCaP cells; assay: Cytotoxic action on cancer cells (WST-8, 96 hr); format: cell-based; details: Homo sapiens, LNCaP, 96 h, read-out: LNCaP cytotoxic activity: IC50
Summary of the method: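 10% FBS/RPMI1640; overnight plating, 37° C/5% CO2; compound from DMSO diluted in medium; WST-8 viable count vs no-compound control; IC50 by two-point linear interpolation around 50% survival.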

[2] = molecular target: BRD4 protein (Homo sapiens (Human), UniProt O60885); assay: BRD4 protein degradation inducing action in cancer cells (immunofluorescence, Operetta); format: cell-based; details: LNCaP cells, 6 hr treatment, fluorescence intensity
Summary of the method: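 DC50 = compound concentration reducing BRD4 immunofluorescence to 50% of untreated cells, interpolated between the two flanking concentrations. Treatment: LNCaP cells, 6 hr, 10% FBS/RPMI1640, 37° C. Cells were then fixed, permeabilized, stained with anti-BRD4 and Alexa Fluor 488 or 546 secondaries, and imaged.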

Compound | IC50 [1] [nM] | DC50 [2] [nM]
COC(=O)C[C@@H]1N=C(c2ccc(-c3ccc(C(=O)N[C@H](C(=O)N4C[C@H](O)C[C@H]4C(=O)NCc4ccc(-c5scnc5C)cc4)C(C)(C)C)c(Cl)c3)cc2)c2c(sc(C)c2C)-n2c(C)nnc21 [Example 190, methyl {(6S)-4-[3′-chloro-4′-({(2S)-1-[(2S,4R)-4-hydroxy-2-({[4-(4-methyl-1,3-thiazol-5-yl)phenyl]methyl}carbamoyl)pyrrolidin-1-yl]-3,3-dimethyl-1-oxobutan-2-yl}carbamoyl)[1,1′-biphenyl]-4-yl]-2,3,9-trimethyl-6H-thieno[3,2-f][1,2,4]triazolo[4,3-a][1,4]diazepin-6-yl}acetate] | 0.13 | 0.17
Cc1ncsc1-c1ccc([C@H](C)NC(=O)[C@@H]2C[C@@H](O)CN2C(=O)[C@@H](NC(=O)CCCCc2ccc(C3=N[C@@H](C)c4nnc(C)n4-c4sc(C)c(C)c43)cc2)C(C)(C)C)cc1 [Example 192, (2S,4R)-1-{(2S)-3,3-dimethyl-2-[(5-{4-[(6S)-2,3,6,9-tetramethyl-6H-thieno[3,2-f][1,2,4]triazolo[4,3-a] [1,4]diazepin-4-yl]phenyl}pentanoyl)amino]butanoyl}-4-hydroxy-N-{(1S)-1-[4-(4-methyl-1,3-thiazol-5-yl)phenyl]ethyl}pyrrolidine-2-carboxamide] | 0.46 | 0.77
Cc1ncsc1-c1ccc([C@H](C)NC(=O)[C@@H]2C[C@@H](O)CN2C(=O)[C@@H](NC(=O)CCCCCc2ccc(C3=N[C@@H](C)c4nnc(C)n4-c4sc(C)c(C)c43)cc2)C(C)(C)C)cc1 [Example 193, (2S,4R)-1-{(2S)-3,3-dimethyl-2-[(6-{4-[(6S)-2,3,6,9-tetramethyl-6H-thieno[3,2-f][1,2,4]triazolo[4,3-a] [1,4]diazepin-4-yl]phenyl}hexanoyl)amino]butanoyl}-4-hydroxy-N-{(1S)-1-[4-(4-methyl-1,3-thiazol-5-yl)phenyl]ethyl}pyrrolidine-2-carboxamide] | 0.3 | 0.62
Cc1ncsc1-c1ccc([C@H](C)NC(=O)[C@@H]2C[C@@H](O)CN2C(=O)[C@@H](NC(=O)CCCCCCc2ccc(C3=N[C@@H](C)c4nnc(C)n4-c4sc(C)c(C)c43)cc2)C(C)(C)C)cc1 [Example 194, (2S,4R)-1-{(2S)-3,3-dimethyl-2-[(7-{4-[(6S)-2,3,6,9-tetramethyl-6H-thieno[3,2-f][1,2,4]triazolo[4,3-a] [1,4]diazepin-4-yl]phenyl}heptanoyl)amino]butanoyl}-4-hydroxy-N-{(1S)-1-[4-(4-methyl-1,3-thiazol-5-yl)phenyl]ethyl}pyrrolidine-2-carboxamide] | 0.17 | 0.23
Cc1ncsc1-c1ccc([C@H](C)NC(=O)[C@@H]2C[C@@H](O)CN2C(=O)[C@@H](NC(=O)C#Cc2ccc(C3=N[C@@H](C)c4nnc(C)n4-c4sc(C)c(C)c43)cc2)C(C)(C)C)cc1 [Example 198, (2S,4R)-1-{(2S)-3,3-dimethyl-2-[(3-{4-[(6S)-2,3,6,9-tetramethyl-6H-thieno[3,2-f][1,2,4]triazolo[4,3-a][1,4]diazepin-4-yl]phenyl}prop-2-ynoyl)amino]butanoyl}-4-hydroxy-N-{(1S)-1-[4-(4-methyl-1,3-thiazol-5-yl)phenyl]ethyl}pyrrolidine-2-carboxamide] | 0.061 | 0.058
Cc1ncsc1-c1ccc([C@H](C)NC(=O)[C@@H]2C[C@@H](O)CN2C(=O)[C@@H](NC(=O)C2(OCCCc3ccc(C4=N[C@@H](C)c5nnc(C)n5-c5sc(C)c(C)c54)cc3)CC2)C(C)(C)C)cc1 [Example 199, (2S,4R)-1-[(2S)-3,3-dimethyl-2-{[1-(3-{4-[(6S)-2,3,6,9-tetramethyl-6H-thieno[3,2-f][1,2,4]triazolo[4,3-a] [1,4]diazepin-4-yl]phenyl}propoxy)cyclopropane-1-carbonyl]amino}butanoyl]-4-hydroxy-N-{(1S)-1-[4-(4-methyl-1,3-thiazol-5-yl)phenyl]ethyl}pyrrolidine-2-carboxamide] | 0.64 | 0.55
Cc1ncsc1-c1ccc([C@H](C)NC(=O)[C@@H]2C[C@@H](O)CN2C(=O)[C@@H](NC(=O)c2ccc(-c3ccc(C4=N[C@@H](C)c5nnc(C)n5-c5sc6c(c54)CCC6)cc3)cc2)C(C)(C)C)cc1 [Example 200, (2S,4R)-1-[(2S)-2-({4′-[(45)-1,4-dimethyl-8,9-dihydro-4H,7H-cyclopenta[4,5]thieno[3,2-f][1,2,4]triazolo[4,3-a] [1,4]diazepin-6-yl][1,1′-biphenyl]-4-carbonyl}amino)-3,3-dimethylbutanoyl]-4-hydroxy-N-{(1S)-1-[4-(4-methyl-1,3-thiazol-5-yl)phenyl]ethyl}pyrrolidine-2-carboxamide] | 0.38 | 0.66
Cc1ncsc1-c1ccc([C@H](C)NC(=O)[C@@H]2C[C@@H](O)CN2C(=O)[C@@H](NC(=O)/C=C/c2ccc(C3=N[C@@H](C)c4nnc(C)n4-c4sc(C)c(C)c43)cc2)C(C)(C)C)cc1 [Example 201, (2S,4R)-1-[(2S)-3,3-dimethyl-2-{[(2E)-3-{4-[(6S)-2,3,6,9-tetramethyl-6H-thieno[3,2-f][1,2,4]triazolo[4,3-a] [1,4]diazepin-4-yl]phenyl}prop-2-enoyl]amino}butanoyl]-4-hydroxy-N-{(1S)-1-[4-(4-methyl-1,3-thiazol-5-yl)phenyl]ethyl}pyrrolidine-2-carboxamide] | 0.34 | 0.37
Cc1ncsc1-c1ccc([C@H](C)NC(=O)[C@@H]2C[C@@H](O)CN2C(=O)[C@@H](NC(=O)c2cc(F)c(-c3ccc(C4=N[C@@H](C)c5nnc(C)n5-c5sc(C)c(C)c54)cc3)cc2Cl)C(C)(C)C)cc1 [Example 204, (2S,4R)-1-[(2S)-2-({5-chloro-2-fluoro-4′-[(6S)-2,3,6,9-tetramethyl-6H-thieno[3,2-f][1,2,4]triazolo[4,3-a] [1,4]diazepin-4-yl][1,1′-biphenyl]-4-carbonyl}amino)-3,3-dimethylbutanoyl]-4-hydroxy-N-{(1S)-1-[4-(4-methyl-1,3-thiazol-5-yl)phenyl]ethyl}pyrrolidine-2-carboxamide] | 0.32 | 0.51
CNC(=O)C[C@@H]1N=C(c2ccc(-c3ccc(C(=O)N[C@H](C(=O)N4C[C@H](O)C[C@H]4C(=O)N[C@@H](C)c4ccc(-c5scnc5C)cc4)C(C)(C)C)cc3F)cc2)c2c(sc(C)c2C)-n2c(C)nnc21 [Example 206, (2S,4R)-1-{(2S)-2-[(2-fluoro-4′-{(6S)-2,3,9-trimethyl-6-[2-(methylamino)-2-oxoethyl]-6H-thieno[3,2-f] [1,2,4]triazolo[4,3-a][1,4]diazepin-4-yl}[1,1′-biphenyl]-4-carbonyl)amino]-3,3-dimethylbutanoyl}-4-hydroxy-N-{(1S)-1-[4-(4-methyl-1,3-thiazol-5-yl)phenyl]ethyl}pyrrolidine-2-carboxamide] | 0.68 | 0.73
Cc1ncsc1-c1ccc([C@H](C)NC(=O)[C@@H]2C[C@@H](O)CN2C(=O)[C@@H](NC(=O)c2ccc(-c3ccc(C4=N[C@@H](CC(=O)N(C)C)c5nnc(C)n5-c5sc(C)c(C)c54)cc3)c(F)c2)C(C)(C)C)cc1 [Example 207, (2S,4R)-1-{(2S)-2-[(4′-{(6S)-6-[2-(dimethylamino)-2-oxoethyl]-2,3,9-trimethyl-6H-thieno [3,2-f][1,2,4]triazolo [4,3-a] [1,4]diazepin-4-yl}-2-fluoro [1,1′-biphenyl]-4-carbonyl)amino]-3,3-dimethylbutanoyl}-4-hydroxy-N-{(1S)-1-[4-(4-methyl-1,3-thiazol-5-yl)phenyl]ethyl}pyrrolidine-2-carboxamide] | 0.43 | 0.62
COC(=O)C[C@@H]1N=C(c2ccc(-c3ccc(C(=O)N[C@H](C(=O)N4C[C@H](O)C[C@H]4C(=O)N[C@@H](C)c4ccc(-c5scnc5C)cc4)C(C)(C)C)cc3)cc2)c2c(sc(CO)c2C)-n2c(C)nnc21 [Example 209, methyl {(6S)-2-(hydroxymethyl)-4-[4′-({(2S)-1-[(2S,4R)-4-hydroxy-2-({(1S)-1-[4-(4-methyl-1,3-thiazol-5-yl)phenyl]ethyl}carbamoyl)pyrrolidin-1-yl]-3,3-dimethyl-1-oxobutan-2-yl}carbamoyl)[1,1′-biphenyl]-4-yl]-3,9-dimethyl-6H-thieno[3,2-f][1,2,4]triazolo[4,3-a][1,4]diazepin-6-yl}acetate] | 0.24 | 0.32
COC(=O)C[C@@H]1N=C(c2ccc(-c3ccc(C(=O)N[C@H](C(=O)N4C[C@H](O)C[C@H]4C(=O)N[C@@H](C)c4ccc(-c5scnc5C)cc4)C(C)C)cc3)cc2)c2c(sc(C)c2C)-n2c(C)nnc21 [Example 210, methyl {(6S)-4-[4′-({(2S)-1-[(2S,4R)-4-hydroxy-2-({(1S)-1-[4-(4-methyl-1,3-thiazol-5-yl)phenyl]ethyl}carbamoyl)pyrrolidin-1-yl]-3-methyl-1-oxobutan-2-yl}carbamoyl)[1,1′-biphenyl]-4-yl]-2,3,9-trimethyl-6H-thieno[3,2-f][1,2,4]triazolo[4,3-a][1,4]diazepin-6-yl}acetate] | 0.29 | 0.26
COC(=O)C[C@@H]1N=C(c2ccc(-c3ccc(C(=O)N[C@H](C(=O)N4C[C@H](O)C[C@H]4C(=O)N[C@@H](CO)c4ccc(-c5scnc5C)cc4)C(C)(C)C)cc3)cc2)c2c(sc(C)c2C)-n2c(C)nnc21 [Example 215, methyl {(6S)-4-[4′-({(2S)-1-[(2S,4R)-4-hydroxy-2-({(1R)-2-hydroxy-1-[4-(4-methyl-1,3-thiazol-5-yl)phenyl]ethyl}carbamoyl)pyrrolidin-1-yl]-3,3-dimethyl-1-oxobutan-2-yl}carbamoyl)[1,1′-biphenyl]-4-yl]-2,3,9-trimethyl-6H-thieno[3,2-f][1,2,4]triazolo[4,3-a][1,4]diazepin-6-yl}acetate] | 0.31 | 0.33
